US10689383B2, “Optionally fused heterocyclyl-substituted derivatives of pyrimidine useful for the treatment of inflammatory, metabolic, oncologic and autoimmune diseases” (NUEVOLUTION A/S, priority 2014, dated 2020)

What was measured:
[1] = target: T1, human RORγt (Ligand Binding Domain) (Homo sapiens, UniProt P51449); assay: Fluorescence Polarization (FP) Assay; conditions: Fluorescence Polarization (FP) Assay; values given as upper bounds of activity ranges; read-out: FP activity range
T1 construct: purchased Crelux (Planegg, Germany) batch no PC5032-1
T1 sequence (P51449 269-508 limits assumed): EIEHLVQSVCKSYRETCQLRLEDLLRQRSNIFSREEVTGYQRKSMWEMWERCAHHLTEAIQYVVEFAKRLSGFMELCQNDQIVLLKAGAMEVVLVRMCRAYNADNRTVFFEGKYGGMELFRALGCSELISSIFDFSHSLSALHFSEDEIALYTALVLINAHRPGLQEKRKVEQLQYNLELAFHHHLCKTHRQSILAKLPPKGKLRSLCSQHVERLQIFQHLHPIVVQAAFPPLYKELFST
Outline: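 Binding to the ligand pocket followed by fluorescence polarization with a TAMRA-tagged RORγt ligand probe of 910 g/mole. Negative control wells received DMSO only.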

[2] = target: T2, yeast Gal4-DNA binding domain fused to the ligand binding domain of human RORγ (Homo sapiens, UniProt P51449); assay: RORγ Reporter Assay (Gal4); assay type: cell-based; conditions: values given as lower bounds of ranges; for Gal4 activity range @ 0.1 μM (% inhibition): RORγ Reporter Assay (Gal4) at 0.1 μM; for Gal4 activity range @ 1 μM (% inhibition): RORγ Reporter Assay (Gal4) at 1 μM
T2 construct: host or cells: HEK293t
T2 sequence (P51449 269-508 limits assumed): T1 sequence (P51449 269-508 limits assumed)
Outline: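 Compound at final 1,000 or 100 nM (0.1% DMSO, triplicate) was added to the transfected HEK293t cells carrying a Gal4-UAS luciferase reporter for 24 h at 37 °C, 10% charcoal-stripped FBS. Activity reduction expressed as percent of vehicle-only luciferase signal.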

For `OCC1(CNc2ncnc(N3CCC[C@@H]3c3ccc(C(F)(F)F)cc3)c2F)COC1` [Example 228, [3-[[[5-fluoro-6-[(2R)-2-[4-(trifluoromethyl)phenyl]pyrrolidin-1-yl]pyrimidin-4-yl]amino]methyl]oxetan-3-yl]methano1], the IC50 [1] was less than 500 nM, the “Gal4 activity range @ 0.1 μM (% inhibition)” value [2] was greater than 20 % inhibition and the “Gal4 activity range @ 1 μM (% inhibition)” value [2] was greater than 80 % inhibition.

For `NC(=O)Cc1ccc(CNc2ncnc(N3CCC[C@@H]3c3ccc(C(F)(F)F)cc3F)c2F)cc1` [Example 232, 2-[4-[[[5-fluoro-6-[(2R)-2-[2-fluoro-4-(trifluoromethyl)phenyl]pyrrolidin-1-yl]pyrimidin-4-yl]amino]methyl]phenyl]acetamide], the IC50 [1] was less than 500 nM, the “Gal4 activity range @ 0.1 μM (% inhibition)” value [2] was greater than 50 % inhibition and the “Gal4 activity range @ 1 μM (% inhibition)” value [2] was greater than 80 % inhibition.

For `Fc1c(NCC2CCSCC2)ncnc1N1CCC[C@@H]1c1ccc(C(F)(F)F)cc1` [Example 164, 5-fluoro-N-(tetrahydrothiopyran-4-ylmethyl)-6-[(2R)-2-[4-(trifluoromethyl)phenyl]pyrrolidin-1-yl]pyrimidin-4-amine], the IC50 [1] was less than 500 nM and the “Gal4 activity range @ 0.1 μM (% inhibition)” value [2] was greater than 20 % inhibition.

`OCC1(CNc2ncnc(N3CC(F)(F)CC3c3ccc(C(F)(F)F)cc3)c2F)COC1` (stereo not drawn) [Example 261, [3-[[[6-[4,4-difluoro-2-[4-(trifluoromethyl)phenyl]pyrrolidin-1-yl]-5-fluoro-pyrimidin-4-yl]amino]methyl]oxetan-3-yl]methanol] was tested, and the IC50 [1] was less than 1000 nM, the “Gal4 activity range @ 0.1 μM (% inhibition)” value [2] was greater than 20 % inhibition and the “Gal4 activity range @ 1 μM (% inhibition)” value [2] was greater than 80 % inhibition.

With `Fc1c(NCc2ccncc2)ncnc1N1CCCC1c1ccc(C(F)(F)F)cc1` (stereo not drawn) [Example 140, 5-fluoro-N-(4-pyridylmethyl)-6-[2-[4-(trifluoromethyl)phenyl]pyrrolidin-1-yl]pyrimidin-4-amine] the IC50 [1] was less than 500 nM and the “Gal4 activity range @ 0.1 μM (% inhibition)” value [2] was greater than 20 % inhibition.

For `O=C(O)Cc1ccc(CNc2ncnc(N3CCOCC3c3ccccc3)c2F)cc1` (stereo not drawn) [Example 276, 2-[4-[[[5-fluoro-6-(3-phenylmorpholin-4-yl)pyrimidin-4-yl]amino]methyl]phenyl]acetic acid], the IC50 [1] was less than 2000 nM, the “Gal4 activity range @ 0.1 μM (% inhibition)” value [2] was greater than 0 % inhibition and the “Gal4 activity range @ 1 μM (% inhibition)” value [2] was greater than 20 % inhibition.

In the case of `NC(=O)Cc1ccc(Cn2ccc3c(N4CCOC[C@@H]4c4ccc(C(F)(F)F)cn4)ncnc32)cc1` [Example 328, 2-[4-[[4-[(3S)-3-[5-(trifluoromethyl)-2-pyridyl]morpholin-4-yl]pyrrolo[2,3-d]pyrimidin-7-yl]methyl]phenyl]acetamide], the IC50 [1] is reported as less than 500 nM, the “Gal4 activity range @ 0.1 μM (% inhibition)” value [2] is reported as greater than 80 % inhibition and the “Gal4 activity range @ 1 μM (% inhibition)” value [2] is reported as greater than 80 % inhibition.

In the case of `Fc1c(NCc2ccc(Cn3cncn3)cc2)ncnc1N1CCCC1c1ccc(C(F)(F)F)cc1` (stereo not drawn) [Example 115, 5-fluoro-N-[[4-(1,2,4-triazol-1-ylmethyl)phenyl]methyl]-6-[2-[4-(trifluoromethyl)phenyl]pyrrolidin-1-yl]pyrimidin-4-amine], the IC50 [1] is reported as less than 500 nM, the “Gal4 activity range @ 0.1 μM (% inhibition)” value [2] is reported as greater than 50 % inhibition and the “Gal4 activity range @ 1 μM (% inhibition)” value [2] is reported as greater than 80 % inhibition.

In the case of `Cc1ccc(CNc2nccc(N3CCCC3c3ccc(C(F)(F)F)cc3)c2F)cn1` (stereo not drawn) [Example 66, 3-fluoro-N-[(6-methyl-3-pyridyl)methyl]-4-[2-[4-(trifluoromethyl)phenyl]pyrrolidin-1-yl]pyridin-2-amine], the IC50 [1] is reported as less than 2000 nM and the “Gal4 activity range @ 1 μM (% inhibition)” value [2] is reported as greater than 50 % inhibition.

For `NC(=O)Cc1ccc(CNc2ncnc(N3CCCC3c3cccc(Br)c3)c2F)cc1` (stereo not drawn) [Example 305, 2-[4-[[[6-[2-(3-bromophenyl)pyrrolidin-1-yl]-5-fluoro-pyrimidin-4-yl]amino]methyl]phenyl]acetamide], the IC50 [1] was less than 500 nM, the “Gal4 activity range @ 0.1 μM (% inhibition)” value [2] was greater than 50 % inhibition and the “Gal4 activity range @ 1 μM (% inhibition)” value [2] was greater than 80 % inhibition.

In the case of `Cc1ccc(CNc2ncnc(N3CC(C)CC3c3ccc(C(F)(F)F)cc3)c2F)cn1` (stereo not drawn) [Example 211, 5-fluoro-N-[(6-methyl-3-pyridyl)methyl]-6-[4-methyl-2-[4-(trifluoromethyl)phenyl]pyrrolidin-1-yl]pyrimidin-4-amine], the IC50 [1] is reported as less than 1000 nM, the “Gal4 activity range @ 0.1 μM (% inhibition)” value [2] is reported as greater than 0 % inhibition and the “Gal4 activity range @ 1 μM (% inhibition)” value [2] is reported as greater than 50 % inhibition.

With `CS(=O)(=O)N1CCC(F)(CNc2ncnc(N3CCOC[C@@H]3c3ccc(C(F)(F)F)cc3)c2F)CC1` [Example 266, 5-fluoro-N-[(4-fluoro-1-methylsulfonyl-4-piperidyl)methyl]-6-[(3S)-3-[4-(trifluoromethyl)phenyl]morpholin-4-yl]pyrimidin-4-amine] the IC50 [1] was less than 500 nM, the “Gal4 activity range @ 0.1 μM (% inhibition)” value [2] was greater than 80 % inhibition and the “Gal4 activity range @ 1 μM (% inhibition)” value [2] was greater than 80 % inhibition.

In the case of `CC1(CNc2ncnc(N3CCC[C@@H]3c3ccc(C(F)(F)F)cc3)c2F)CCCS1` (stereo partly drawn) [Example 201, 5-fluoro-N-[(2-methyltetrahydrothiophen-2-yl)methyl]-6-[(2R)-2-[4-(trifluoromethyl)phenyl]pyrrolidin-1-yl]pyrimidin-4-amine], the IC50 [1] is reported as less than 500 nM, the “Gal4 activity range @ 0.1 μM (% inhibition)” value [2] is reported as greater than 0 % inhibition and the “Gal4 activity range @ 1 μM (% inhibition)” value [2] is reported as greater than 80 % inhibition.

With `COC1CCCCC1CNc1ncnc(N2CCC[C@@H]2c2ccc(C(F)(F)F)cc2)c1F` (stereo partly drawn) [Example 168, 5-fluoro-N-[(2-methoxycyclohexyl)methyl]-6-[(2R)-2-[4-(trifluoromethyl)phenyl]pyrrolidin-1-yl]pyrimidin-4-amine] the IC50 [1] was less than 500 nM and the “Gal4 activity range @ 0.1 μM (% inhibition)” value [2] was greater than 50 % inhibition.

With `OC1(CNc2ncnc(N3CCC[C@@H]3c3ccc(C(F)(F)F)cc3)c2F)CCSC1` (stereo partly drawn) [Example 165, 3-[[[5-fluoro-6-[(2R)-2-[4-(trifluoromethyl)phenyl]pyrrolidin-1-yl]pyrimidin-4-yl]amino]methyl]tetrahydrothiophen-3-ol] the IC50 [1] was less than 500 nM and the “Gal4 activity range @ 0.1 μM (% inhibition)” value [2] was greater than 50 % inhibition.

For `CC1(c2ccc(C(F)(F)F)cc2)CCCN1c1ncnc(NCc2ccc(CC(N)=O)cc2)c1F` (stereo not drawn) [Example 229, 2-[4-[[[5-fluoro-6-[2-methyl-2-[4-(trifluoromethyl)phenyl]pyrrolidin-1-yl]pyrimidin-4-yl]amino]methyl]phenyl]acetamide], the IC50 [1] was less than 500 nM, the “Gal4 activity range @ 0.1 μM (% inhibition)” value [2] was greater than 50 % inhibition and the “Gal4 activity range @ 1 μM (% inhibition)” value [2] was greater than 80 % inhibition.

For `NC(=O)Cc1ccc(CN2CCc3c2ncnc3N2CCC[C@@H]2c2ccc(C(F)(F)F)cc2)cc1` [Example 265, 2-[4-[[4-[(2R)-2-[4-(trifluoromethyl)phenyl]pyrrolidin-1-yl]-5,6-dihydropyrrolo[2,3-d]pyrimidin-7-yl]methyl]phenyl]acetamide], the IC50 [1] was less than 500 nM, the “Gal4 activity range @ 0.1 μM (% inhibition)” value [2] was greater than 80 % inhibition and the “Gal4 activity range @ 1 μM (% inhibition)” value [2] was greater than 80 % inhibition.

With `CC(C)(C)C[C@@H](Nc1ncnc(N2CCCC2c2ccc(C(F)(F)F)cn2)c1F)C(N)=O` (stereo partly drawn) [Example 42, (2R)-2-[[5-fluoro-6-[2-[5-(trifluoromethyl)-2-pyridyl]pyrrolidin-1-yl]pyrimidin-4-yl]amino]-4,4-dimethyl-pentanamide] the IC50 [1] was less than 2000 nM and the “Gal4 activity range @ 1 μM (% inhibition)” value [2] was greater than 20 % inhibition.

In the case of `NC(=O)Cc1ccc(CNc2ncnc(N3CCOC[C@@H]3c3ccc(OC(F)(F)F)cc3F)c2F)cc1` [Example 258, 2-[4-[[[5-fluoro-6-[(3S)-3-[2-fluoro-4-(trifluoromethoxy)phenyl]morpholin-4-yl]pyrimidin-4-yl]amino]methyl]phenyl]acetamide], the IC50 [1] is reported as less than 500 nM, the “Gal4 activity range @ 0.1 μM (% inhibition)” value [2] is reported as greater than 80 % inhibition and the “Gal4 activity range @ 1 μM (% inhibition)” value [2] is reported as greater than 80 % inhibition.

In the case of `NS(=O)(=O)c1ccc(CNc2ncnc(N3CCC[C@@H]3c3ccc(C(F)(F)F)cc3)c2F)cc1` [Example 182, 4-[[[5-fluoro-6-[(2R)-2-[4-(trifluoromethyl)phenyl]pyrrolidin-1-yl]pyrimidin-4-yl]amino]methyl]benzenesulfonamide], the IC50 [1] is reported as less than 500 nM and the “Gal4 activity range @ 0.1 μM (% inhibition)” value [2] is reported as greater than 50 % inhibition.

With `CS(=O)(=O)CC1(CNc2ncnc(N3CC(F)(F)CC3c3ccc(C(F)(F)F)cc3)c2F)CCOCC1` (stereo not drawn) [Example 260, 6-[4,4-difluoro-2-[4-(trifluoromethyl)phenyl]pyrrolidin-1-yl]-5-fluoro-N-[[4-(methylsulfonylmethyl)tetrahydropyran-4-yl]methyl]pyrimidin-4-amine] the IC50 [1] was less than 500 nM, the “Gal4 activity range @ 0.1 μM (% inhibition)” value [2] was greater than 50 % inhibition and the “Gal4 activity range @ 1 μM (% inhibition)” value [2] was greater than 80 % inhibition.

`COc1cccc(CNc2ncnc(N3CCCC3c3ccc(C(F)(F)F)cc3)c2F)c1OC` (stereo not drawn) [Example 54, N-[(2,3-dimethoxyphenyl)methyl]-5-fluoro-6-[2-[4-(trifluoromethyl)phenyl]pyrrolidin-1-yl]pyrimidin-4-amine] was tested, and the IC50 [1] was less than 1000 nM and the “Gal4 activity range @ 1 μM (% inhibition)” value [2] was greater than 50 % inhibition.

In the case of `Cn1cc(CNc2ncnc(N3CCCC3c3ccc(C(F)(F)F)cc3)c2F)cn1` (stereo not drawn) [Example 106, 5-fluoro-N-[(1-methylpyrazo1-4-yl)methyl]-6-[2-[4-(trifluoromethyl)phenyl]pyrrolidin-1-yl]pyrimidin-4-amine], the IC50 [1] is reported as less than 10000 nM and the “Gal4 activity range @ 1 μM (% inhibition)” value [2] is reported as greater than 20 % inhibition.
